Assay results from patent US9315544B2, “Method of treating eosinophilia by administering an immunomodulating peptide” (National Tsing Hua University, priority 2012, dated 2016).

How the values were obtained:
human CCL11 = experiment: CCL11 protein release from Beas-2B cells by ELISA; assay type: cell-based; conditions: Beas-2B cells, 24 h
Experimental: FIG. 2 illustrates CCL11 expression in CMP and ECP co-treated Beas-2B cells. Beas-2B cells were starved with serum free medium for 24 h, followed by stimulation with ECP (column 2). Cells were stimulated with PBS as negative control (column 1) and ECP in the absence of CMP (column 2) or presence of 1 μM (column 3), 2.5 μM (column 4), 5 μM (column 5), 10 μM (column 6) CMP at 37° C. for 24 h. CCL11 protein level was determined by ELISA kit employing CCL11 antibody. The data represented mean±SD (standard deviation) of at least three independent experiments. ***, p<0.001; **, p<0.01
FIG. 3 illustrates CCL11 expression in CMP and IL-4 co-treated Beas-2B cells. Beas-2B cells were starved with serum free medium for 24 h, followed by stimulation with PBS (column 1) or 10 ng/mL IL-4 (column 2-7). Cells were stimulated with 10 ng/mL IL-4 in the absence […] or presence of 1 μM (column 3), 2.5 μM (column 4), 5 μM (column 5) and 10 μM (column 6) CMP at 37° C. for 24 h. CCL11 protein level was determined by ELISA kit employing CCL11 antibody. The data represented mean±SD (standard deviation) of at least three independent experiments. ***, p<0.001 (Stimulation with IL-4 compared with PBS treated Beas-2B cells). *, p<0.05 (Stimulation with indicated concentrations of CMP compared with IL-4 treated Beas-2B cells).
CCL11 ELISA kit (R&D) is an in vitro enzyme-linked immunosorbent assay for quantitative determination of human CCL11 concentration in cell culture supernatants. This assay employed an antibody specific for human CCL11 coated on a 96-well plate. The wells were incubated with 50 μL standard or sample for 2.5 hours at room temperature. After washing with 1× wash solution five times, 200 μL of CCL11 conjugate were added into each wells for 1 h. After washing, 100 μL TMB One-Step Substrate Reagent were added into each wells at room temperature for 30 minutes. 50 μL of Stop Solution were added into each wells and read at 450 nm by spectrophotometer immediately. Limit of detection in the assay was 5 pg/mL.
To investigate whether CMP influenced ECP-mediated CCL11 expression, Beas-2B cells were separately stimulated with 5 μM ECP in the absence of CMP and in the presence of 1 μM, 2.5 μM, 5 μM and 10 μM CMP at 37° C. for 24 h.
To further investigate whether CMP influenced CCL11 production from other stimulation in Beas-2B cells, serum-deprived Beas-2B cells were stimulated with 10 ng/mL IL-4, a dominant cytokine regulating CCL11, alone or in the presence of CMP at concentrations 1, 2.5, 5 and 10 μM at 37° C. for 24 h.

goblet cell hyperplasia = experiment: Lung histopathology (PAS), goblet cell hyperplasia score; assay type: in vivo, BALB/c mouse; conditions: eIN+mIT+eIN group (CMP days 1 to 22)
Description: FIG. 4 illustrates experimental design. All groups except control group were immunized with mite crude extract allergen on days 1 and 8, then mite crude extract allergen intratracheally on day 15 in all mite treated group, BALB/c mouse were divided into six groups (1) control group (PBS), (2) mites delivered intratracheally (mIT, mite on day 15) alone, (3) CMP intranasal (eIN, CMP on days 1 to 22) alone, (4) preventive-treatment group (eIN+mIT, CMP on days 1 to 14, mite on day 15) (5) therapy-treatment group (mIT+eIN, mite on day 15, CMP on days 15 to 22), and (6) preventive- and therapeutic-treatment group (eIN+mIT+eIN, CMP on days 1 to 22, mite on day 15).
FIG. 6A-6B illustrates inhibitory effect of CMP on influx of inflammatory cells. […] (A) Scores for peri-bronchiolar, alveolar inflammation and (B) PAS were determined based on the histological sections. Each result was expressed as the mean±S.D., n=4. ***, P<0.001. […]
The formalin-fixed lung sections stained with hematoxylin and eosin (H&E) were assigned a unit value for alveolar, peri-bronchiolar, and total inflammation by computing the means of three independent scores for three randomly selected fields. […] For evaluating the hyperplasia goblet cells, medium-sized airways were assessed in sections stained with periodic acid-Schiff (PAS) stain. Two reviewers independently and randomly scored 10 fields of each slide. […]

[1] = system: bronchial epithelial cell; conditions: cited from earlier work

NYRWRCKNQN (CMP)
release of CCL11 induced by IL-4, reduced to (human CCL11; 10 ng/mL IL-4 with 5 μM CMP): 48.1 pg/mL | release of CCL11 induced by IL-4, reduced to (human CCL11; 10 ng/mL IL-4 with 10 μM CMP): 30.2 pg/mL | CCL11 production induced by IL-4 (human CCL11; 10 ng/mL IL-4 with 1 or 2.5 μM CMP): did not reduce | CCL11 induced by ECP, reduced to (human CCL11; 5 μM ECP and 5 μM CMP): 7.55 pg/mL | CCL11 induced by ECP, reduced to (human CCL11; 5 μM ECP and 10 μM CMP): 8.94 pg/mL | ECP-mediated CCL11 production (human CCL11; 5 μM ECP and 1 or 2.5 μM CMP): did not reduce | score of goblet cell hyperplasia compared with mIT group (goblet cell hyperplasia): lower score | cytotoxic effect on bronchial epithelial cell [1]: no cytotoxic effect
